Data reported in US10562902B2, “IRAK4 inhibitor and use thereof” (BEIJING HANMI PHARMACEUTICAL CO., LTD., priority 2015, dated 2020).
pIC50: −log10 of the molar value.

biological target: IRAK4 kinase (Homo sapiens (Human), UniProt Q9NWZ3); assay: IRAK4 kinase activity inhibition assay; format: biochemical; details: ADP-Glo kinase assay, 10 μM ATP, MBP substrate
Method: IRAK4 kinase (purchased from Life Technologies, Cat. No.: PR5612U) was diluted to 2 folds of the final concentration (the final concentration is […]) with reaction buffer (40 mM Tris-HC1, pH 7.5; 20 mM MgCl2; 0.1 mg/mL BSA; 1 mM DTT), and added to a 384-well plate at 5 μL/well. The test drugs were 10-fold serial diluted from 10 μM to set six concentration points and added to the test wells of the 384-well plate at 2.5 μL/well. After incubation for 10 min at 25° C., 10 μM of ATP and 0.1 μg/μL of an enzyme reaction substrate, myelin basic protein MBP (purchased from Signal Chem, Cat. No.: M42-51N) were added at 2.5 μL/well, and reacted at 25° C. for 60 minutes. After the reaction was completed, the kinase activity assay was performed using the ADP-Glo™ kinase assay kit (purchased from Promega, Cat. No.: V9102) according to the manufacture's instruction, i.e., 10 μL of ADP-Glo reaction reagent was first added and reacted at 25° C. for 40 minutes, 10 μL of the reaction mixture was taken and mixed with 10 μL of ADP-Glo detection reagent, and reacted at 25° C. for 30 minutes. The kinase activity was then detected, and the IC50 values of the test drugs were calculated.

IRAK4 kinase, sequence (Q9NWZ3 whole entry): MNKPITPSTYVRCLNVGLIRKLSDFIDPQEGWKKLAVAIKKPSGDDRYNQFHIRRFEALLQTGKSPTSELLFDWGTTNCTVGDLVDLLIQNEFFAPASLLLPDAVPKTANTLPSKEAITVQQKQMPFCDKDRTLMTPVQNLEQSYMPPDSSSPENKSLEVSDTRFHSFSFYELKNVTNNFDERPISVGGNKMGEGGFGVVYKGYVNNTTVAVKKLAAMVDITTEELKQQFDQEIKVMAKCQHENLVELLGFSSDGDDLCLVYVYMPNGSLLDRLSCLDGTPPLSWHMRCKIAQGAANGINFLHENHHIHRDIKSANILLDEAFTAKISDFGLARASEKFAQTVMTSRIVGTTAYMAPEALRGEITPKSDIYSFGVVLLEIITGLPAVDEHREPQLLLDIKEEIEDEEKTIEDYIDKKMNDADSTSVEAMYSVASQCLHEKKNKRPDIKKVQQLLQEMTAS

`Cc1cc(Nc2nc(N[C@H]3CC[C@H](O)CC3)c3c(ccn3-c3cnn(C)c3)n2)sn1` [Example 1, trans-4-[2-(3-methylisothiazol-5-ylamino)-5-(1-methyl-1H-pyrazol-4-yl)-5H-pyrrolo[3,2-d]pyrimidin-4-ylamino]cyclohexanol] and `Cc1cc(Nc2nc(N[C@H]3CC[C@@H](O)C3)c3c(ccn3-c3cnn(C)c3)n2)sn1` [Example 18] cannot be ordered by pIC50: no less than 7.00 for the first, no less than 7.00 for the second.

`Cc1cc(Nc2nc(NC(C)C)c3c(ccn3-c3cnn(C)c3)n2)sn1` [Example 2] and `Cc1cc(Nc2nc(OC(C)C)c3c(ccn3-c3cnn(C)c3)n2)sn1` [Example 54, [4-isopropoxy-5-(1-methyl-1H-pyrazol-4-yl)-5H-pyrrolo[3,2-d]pyrimidin-2-yl]-(3-methylisothiazol-5-yl)amine] cannot be ordered by pIC50: no less than 7.00 for the first, no less than 7.00 for the second.

`Cc1cc(Nc2nc(NCCO)c3c(ccn3-c3cnn(C)c3)n2)sn1` [Example 3] and `Cc1cc(Nc2nc(NCCCO)c3c(ccn3-c3cnn(C)c3)n2)sn1` [Example 4] cannot be ordered by pIC50: 6.00 to 7.00 for the first, no less than 7.00 for the second.

`Cc1cc(Nc2nc(NCCCCO)c3c(ccn3-c3cnn(C)c3)n2)sn1` [Example 5] and `CNC(=O)CCCNc1nc(Nc2cc(C)ns2)nc2ccn(-c3cnn(C)c3)c12` [Example 7] cannot be ordered by pIC50: no less than 7.00 for the first, 6.00 to 7.00 for the second.

`CNC(=O)CCNc1nc(Nc2cc(C)ns2)nc2ccn(-c3cnn(C)c3)c12` [Example 6] and `CC(=O)NCCNc1nc(Nc2cc(C)ns2)nc2ccn(-c3cnn(C)c3)c12` [Example 8] fall in the same range of pIC50: 6.00 to 7.00 for the first, 6.00 to 7.00 for the second.

`CC(=O)NCCCNc1nc(Nc2cc(C)ns2)nc2ccn(-c3cnn(C)c3)c12` [Example 9] and `Cc1cc(Nc2nc(NCCCN3CCOCC3)c3c(ccn3-c3cnn(C)c3)n2)sn1` [Example 11] fall in the same range of pIC50: 6.00 to 7.00 for the first, 6.00 to 7.00 for the second.

`Cc1cc(Nc2nc(NCCN3CCOCC3)c3c(ccn3-c3cnn(C)c3)n2)sn1` [Example 10] and `Cc1cc(Nc2nc(NC3CCOCC3)c3c(ccn3-c3cnn(C)c3)n2)sn1` [Example 29] cannot be ordered by pIC50: 6.00 to 7.00 for the first, no less than 7.00 for the second.

`Cc1cc(Nc2nc(NC3CCC3)c3c(ccn3-c3cnn(C)c3)n2)sn1` [Example 12] and `Cc1cc(Nc2nc(NC3CCCC3)c3c(ccn3-c3cnn(C)c3)n2)sn1` [Example 17] fall in the same range of pIC50: 6.00 to 7.00 for the first, 6.00 to 7.00 for the second.

`Cc1cc(Nc2nc(NC3CC(O)C3)c3c(ccn3-c3cnn(C)c3)n2)sn1` (stereo not drawn) [Example 13] and `Cc1cc(Nc2nc(N[C@H]3C[C@@](C)(O)C3)c3c(ccn3-c3cnn(C)c3)n2)sn1` [Example 14] cannot be ordered by pIC50: no less than 7.00 for the first, no less than 7.00 for the second.

`Cc1cc(Nc2nc(N[C@H]3C[C@@H](N4CCCCC4)C3)c3c(ccn3-c3cnn(C)c3)n2)sn1` [Example 15] and `Cc1cc(Nc2nc(N[C@H]3C[C@H](N4CCCCC4)C3)c3c(ccn3-c3cnn(C)c3)n2)sn1` [Example 16] fall in the same range of pIC50: 6.00 to 7.00 for the first, 6.00 to 7.00 for the second.

`Cc1cc(Nc2nc(N[C@@H]3C[C@H](CO)[C@@H](O)[C@H]3O)c3c(ccn3-c3cnn(C)c3)n2)sn1` [Example 19] and `Cc1cc(Nc2nc(N[C@@H]3CCOC3)c3c(ccn3-c3cnn(C)c3)n2)sn1` [Example 20] cannot be ordered by pIC50: no less than 7.00 for the first, 6.00 to 7.00 for the second.

`Cc1cc(Nc2nc(N[C@H]3CCOC3)c3c(ccn3-c3cnn(C)c3)n2)sn1` [Example 21] and `Cc1cc(Nc2nc(NC3CCCCC3)c3c(ccn3-c3cnn(C)c3)n2)sn1` [Example 22] fall in the same range of pIC50: 6.00 to 7.00 for the first, 6.00 to 7.00 for the second.

`Cc1cc(Nc2nc(NC3CCC(=O)CC3)c3c(ccn3-c3cnn(C)c3)n2)sn1` [Example 23] and `Cc1cc(Nc2nc(NC3CCN(C)CC3)c3c(ccn3-c3cnn(C)c3)n2)sn1` [Example 30] fall in the same range of pIC50: 6.00 to 7.00 for the first, 6.00 to 7.00 for the second.

`Cc1cc(Nc2nc(N[C@H]3CC[C@](C)(O)CC3)c3c(ccn3-c3cnn(C)c3)n2)sn1` [Example 24] and `CO[C@H]1CC[C@@H](Nc2nc(Nc3cc(C)ns3)nc3ccn(-c4cnn(C)c4)c23)CC1` [Example 25] fall in the same range of pIC50: 6.00 to 7.00 for the first, 6.00 to 7.00 for the second.

`CO[C@H]1CC[C@H](Nc2nc(Nc3cc(C)ns3)nc3ccn(-c4cnn(C)c4)c23)CC1` [Example 26] and `CC(=O)N[C@H]1CC[C@H](Nc2nc(Nc3cc(C)ns3)nc3ccn(-c4cnn(C)c4)c23)CC1` [Example 27] cannot be ordered by pIC50: no less than 7.00 for the first, 6.00 to 7.00 for the second.

`Cc1cc(Nc2nc(N[C@H]3CC[C@H](N4CCCCC4)CC3)c3c(ccn3-c3cnn(C)c3)n2)sn1` [Example 28] and `Cc1cc(Nc2nc(N[C@H]3CC[C@H](O)CC3)c3c(ccn3-c3cccnc3)n2)sn1` [Example 38] cannot be ordered by pIC50: 6.00 to 7.00 for the first, no less than 7.00 for the second.

`CNC(=O)c1ccc(Nc2nc(Nc3cc(C)ns3)nc3ccn(-c4cnn(C)c4)c23)cc1` [Example 31] and `COCCOc1nc(Nc2cc(C)ns2)nc2ccn(-c3cnn(C)c3)c12` [Example 55] cannot be ordered by pIC50: 6.00 to 7.00 for the first, no less than 7.00 for the second.

`Cc1cc(Nc2nc(NC(C)C)c3c(ccn3-c3cnn(C4CCOCC4)c3)n2)sn1` [Example 32] and `CC(C)Nc1nc(Nc2cnn(C3CCOCC3)c2)nc2ccn(-c3cnn(C)c3)c12` [Example 47] fall in the same range of pIC50: 6.00 to 7.00 for the first, 6.00 to 7.00 for the second.

`Cc1cc(Nc2nc(N[C@H]3CC[C@H](O)CC3)c3c(ccn3-c3ccccc3)n2)sn1` [Example 33] and `Cc1cc(Nc2nc(N[C@H]3CC[C@H](O)CC3)c3c(ccn3-c3ccc(F)cc3)n2)sn1` [Example 34] fall in the same range of pIC50: 6.00 to 7.00 for the first, 6.00 to 7.00 for the second.

`Cc1cc(Nc2nc(NC(C)C)c3c(ccn3-c3cccc(C(=O)O)c3)n2)sn1` [Example 35] and `Cc1cc(Nc2nc(NC(C)C)c3c(ccn3-c3cccc(S(C)(=O)=O)c3)n2)sn1` [Example 36] fall in the same range of pIC50: 5.00 to 6.00 for the first, 5.00 to 6.00 for the second.

First: Cc1cc(Nc2nc(NC(C)C)c3c(ccn3-c3cccnc3)n2)sn1 [Example 37]
Second: Cc1cc(Nc2nc(NC(C)C)c3c(ccn3-c3ccc(N)nc3)n2)sn1 [Example 39]
The pIC50 of the first is higher: 6.00 to 7.00 for the first, 5.00 to 6.00 for the second.

`Cc1cc(Nc2nc(NC3CCOCC3)c3c(ccn3-c3ccncc3)n2)sn1` [Example 40] and `CN(C)C(=O)c1csc(Nc2nc(NC3CCOCC3)c3c(ccn3-c3cnn(C)c3)n2)c1` [Example 50] fall in the same range of pIC50: 6.00 to 7.00 for the first, 6.00 to 7.00 for the second.

`Cc1cc(Nc2nc(NC(C)C)c3c(ccn3-c3ccnc(O)c3)n2)sn1` [Example 41] and `COc1cc(-n2ccc3nc(Nc4cc(C)ns4)nc(NC(C)C)c32)ccn1` [Example 42] fall in the same range of pIC50: 6.00 to 7.00 for the first, 6.00 to 7.00 for the second.

First: Cc1cc(Nc2nc(NC(C)C)c3c(ccn3-c3ccc4c(c3)OCO4)n2)sn1 [Example 43]
Second: Cc1cc(Nc2nc(NC(C)C)c3c(ccn3-c3cccc4c3cnn4C)n2)sn1 [Example 44]
The pIC50 of the first is higher: 6.00 to 7.00 for the first, 5.00 to 6.00 for the second. The first is the more potent here.

`CC(C)Nc1nc(Nc2cnn(C3CCCCC3)c2)nc2ccn(-c3cnn(C)c3)c12` [Example 45, N^2-(1-cyclohexyl-1H-pyrazol-4-yl)-N^4-isopropyl-5-(1-methyl-1H-pyrazol-4-yl)-5H-pyrrolo[3,2-d]pyrimidin-2,4-diamine] and `Cn1cc(Nc2nc(N[C@H]3CC[C@H](O)CC3)c3c(ccn3-c3cnn(C)c3)n2)cn1` [Example 46] fall in the same range of pIC50: 6.00 to 7.00 for the first, 6.00 to 7.00 for the second.

`CCNC(=O)c1csc(Nc2nc(NC3CCOCC3)c3c(ccn3-c3cnn(C)c3)n2)c1` [Example 49] and `CNC(=O)c1cc(Nc2nc(NC3CCOCC3)c3c(ccn3-c3cnn(C)c3)n2)cs1` [Example 51] cannot be ordered by pIC50: no less than 7.00 for the first, no less than 7.00 for the second.

`CN(C)C(=O)c1cc(Nc2nc(NC3CCOCC3)c3c(ccn3-c3cnn(C)c3)n2)cs1` [Example 52] and `Cc1cc(Nc2nc(N(C)C3CCOCC3)c3c(ccn3-c3cnn(C)c3)n2)sn1` [Example 53, N^4-methyl-N^2-(3-methylisothiazol-5-yl)-5-(1-methyl-1H-pyrazol-4-yl)-N^4-(tetrahydropyran-4-yl)-5H-pyrrolo[3,2-d]pyrimidine-2,4-diamine] fall in the same range of pIC50: 6.00 to 7.00 for the first, 6.00 to 7.00 for the second.
